≈ marks a conversion by molar mass, not a printed value. Read-outs that look alike come from different tables or passages of the source. Non-standard residues stand in square brackets, D forms with d. Residues, ends and D or L forms follow the SMILES beside them. Ac6c = NC1(C(=O)O)CCCCC1
Tests used:
[1] = test system: C. neoformans KN99α (serotype A, mating type MATα)
[2] = test system: C. neoformans 1841 (serotype D)
[3] = test system: C. neoformans H99 (serotype A)
[4] = test system: C. neoformans 1841; test: Scanning electron microscopy, damaged cells; assay type: cell-based, Cryptococcus neoformans; details: 200 μmol/L, 10^8 CFU/mL, 3 h, 30°C
Experimental: Overnight cultures of C. neoformans 1841 were prepared as described and adjusted with 50% SAB in phosphate buffer to reach 1 × 10^8 CFU/mL. Aqueous peptide solutions (20 μL) were added to the cell suspension (80 μL) to give a final peptide concentration of 200 μmol/L. Samples were incubated at 30°C on an orbital shaker (750 rpm) for 3 h. Samples were centrifuged (2,000 × g, 10 min, 4°C, Microfuge 22R, Beckmann Coulter), cell pellets were washed with ice-cold phosphate-buffered saline (PBS, 100 μL) and centrifuged again. Cell pellets were re-suspended in PBS (25 μL) and adhered overnight in humid atmosphere to glass coverslips (Borosilicate Glass, VWR International GmbH) previously coated with 0.001% poly-L-lysine (in case of Critical-Point Drying). Cells were fixed (2% glutaraldehyde, 2% paraformaldehyde, in PBS) for 60 min and afterwards stained with 1% OsO4 in PBS for 60 min. The cells were gradually dehydrated in ethanol series (30, 50, 70, 85, 90, 96% (once), and 100% (thrice) for 10 min. The coverslips were critical-point-dried (Baltec CPD 030, BAL-TEC GmbH, Schalksmühle, Germany) or air-dried after incubation with HMDS (3 min, RT) and sputter coated with 20 nm gold/palladium (Baltec MED 020, BAL-TEC GmbH). Cells were visualized using the SEM secondary electron detector (Zeiss EVO LS 15 LaB6, Carl Zeiss Microscopy Deutschland GmbH).
GraphPad Prism 10.0.3 software was used for statistical analysis of the recorded data. A Dunnett’s multiple comparisons test (Ordinary-one-way ANOVA) was performed.

[5] = test system: C. neoformans 1841 (serotype D); test: microbe, parasite or virus in culture; details: Cryptococcus neoformans
[6] = test system: C. neoformans strains 1841, H99, and KN99α; test: Broth microdilution assay (MIC); assay type: cell-based, Cryptococcus neoformans
[7] = test system: C. neoformans H99 (serotype A); test: microbe, parasite or virus in culture; details: Cryptococcus neoformans
[8] = test system: C. neoformans KN99α (serotype A, mating type MATα); test: microbe, parasite or virus in culture; details: Cryptococcus neoformans
[9] = test system: C. neoformans 1841; test: Antifungal activity assay (CFU on SAB agar); assay type: cell-based, Cryptococcus neoformans; details: treatment 3 h, 30 °C, mean ± SD, n = 4; for cell count C. neoformans 1841, 24 h: CFU counted after 24 h; for cell count C. neoformans 1841, 48 h: CFU counted after 48 h
[10] = test system: C. neoformans H99; test: Antifungal activity assay (CFU on SAB agar); assay type: cell-based, Cryptococcus neoformans; details: treatment 3 h, 30 °C, mean ± SD, n = 4; for cell count C. neoformans H99, 24 h: CFU counted after 24 h; for cell count C. neoformans H99, 48 h: CFU counted after 48 h
[11] = test system: C. neoformans KN99α; test: Antifungal activity assay (CFU on SAB agar); assay type: cell-based, Cryptococcus neoformans; details: treatment 3 h, 30 °C, mean ± SD, n = 4; for cell count C. neoformans KN99α, 24 h: CFU counted after 24 h; for cell count C. neoformans KN99α, 48 h: CFU counted after 48 h
[12] = test system: C. neoformans 1841; test: Time-kill assay; assay type: cell-based, Cryptococcus neoformans; details: 2.5 μmol/L, 30°C, up to 24 h
Experimental: The kinetic effects of the antifungal activity were determined by diluting overnight cultures to 5 × 10^4 CFU/mL with 50% SAB in phosphate buffer. Aqueous peptide solutions (20 μL) were added to the cell suspension (80 μL) to give a final peptide concentration of 2.5 μmol/L. Samples were incubated at 30°C on an orbital shaker (750 rpm, Titramax 1,000, Heidolph Instruments GmbH & Co. KG) for 24 h. Before incubation (0 min) and after 45 min, 90 min, 3 h, 6 h, and 24 h incubation, aliquots (10 μL) of samples were taken and diluted with phosphate buffer (10 mmol/L, pH 7.5) to observe countable cell colonies. Aliquots (100 μL) of the diluted cell suspensions were plated on SAB agar plates. Plates were incubated at 30°C and colonies were counted after 24 h.

[13] = test system: C. neoformans strains 1841, H99, and KN99α; test: Antifungal activity assay (CFU); assay type: cell-based, Cryptococcus neoformans; details: only small colonies appearing after more than 24 h
[14] = 24 h, pH 7.5, read-out: MIC (μmol/L) 1841 24 h
[15] = 24 h, read-out: MIC (mg/L) 1841 24 h
[16] = 48 h, pH 7.5, read-out: MIC (μmol/L) 1841 48 h
[17] = 48 h, read-out: MIC (mg/L) 1841 48 h
[18] = Cryptococcus neoformans, read-out: MIC
[19] = 24 h, read-out: MIC (mg/L) H99 24 h
[20] = 24 h, read-out: MIC (μmol/L) H99 24 h
[21] = 48 h, read-out: MIC (mg/L) H99 48 h
[22] = 48 h, read-out: MIC (μmol/L) H99 48 h
[23] = 24 h, read-out: MIC (mg/L) KN99α 24 h
[24] = 24 h, read-out: MIC (μmol/L) KN99α 24 h
[25] = 48 h, read-out: MIC (mg/L) KN99α 48 h
[26] = 48 h, read-out: MIC (μmol/L) KN99α 48 h
[27] = broth microdilution, 50% SAB in phosphate buffer, 30°C, read after 24 h, n = 6
[28] = broth microdilution, 50% SAB in phosphate buffer, 30°C, read after 48 h, n = 6

Row | Compound | MIC [5, 14] [µmol/L] | MIC [5, 15] [mg/L] | cell count C. neoformans 1841, 24 h ([9]; 0.25 µmol/L) | cell count C. neoformans 1841, 48 h ([9]; 0.25 µmol/L) | cell count C. neoformans 1841, 24 h ([9]; 2.5 µmol/L) | cell count C. neoformans 1841, 48 h ([9]; 2.5 µmol/L) | cell count C. neoformans 1841, 24 h ([9]; 25 µmol/L) | cell count C. neoformans 1841, 48 h ([9]; 25 µmol/L) | cell count C. neoformans H99, 24 h ([10]; 0.25 µmol/L) | cell count C. neoformans H99, 48 h ([10]; 0.25 µmol/L) | cell count C. neoformans H99, 24 h ([10]; 2.5 µmol/L) | cell count C. neoformans H99, 48 h ([10]; 2.5 µmol/L) | cell count C. neoformans H99, 24 h ([10]; 25 µmol/L) | cell count C. neoformans H99, 48 h ([10]; 25 µmol/L) | cell count C. neoformans KN99α, 24 h ([11]; 0.25 µmol/L) | cell count C. neoformans KN99α, 48 h ([11]; 0.25 µmol/L) | cell count C. neoformans KN99α, 24 h ([11]; 2.5 µmol/L) | cell count C. neoformans KN99α, 48 h ([11]; 2.5 µmol/L) | cell count C. neoformans KN99α, 24 h ([11]; 25 µmol/L) | cell count C. neoformans KN99α, 48 h ([11]; 25 µmol/L) | other results
1 | CC(C)C[C@H](NC(=O)[C@@H]1CCCN1C(=O)[C@@H]1CCCN1C(=O)[C@H](CCCNC(=N)N)NC(=O)[C@H](Cc1ccc(O)cc1)NC(=O)[C@@H]1CCCN1C(=O)[C@@H]1CCCN1C(=O)[C@H](CCCNC(=N)N)NC(=O)C1(NC(=O)[C@H](CCCNC(=N)N)NC(=O)[C@@H]2CCCN2C(=O)[C@H](CCCCN)NC(=O)[C@@H]2CCCN2C(=O)[C@H](CCCNC(=N)N)NC(=O)[C@@H]2CCCN2C(=O)[C@H](CCCNC(=N)N)NC(=O)[C@@H](NC(=O)[C@H](CCCNC(=N)N)NC(=O)[C@@H](N)CC(=O)O)C(C)C)CCCCC1)C(=O)N1CCC[C@H]1C(N)=O [Chex1Arg20 scr] (H-DRVRPRPKPR[Ac6c]RPPYRPPLP-NH2; N-terminus assumed) |  |  |  |  |  |  |  |  |  |  |  |  |  |  |  |  |  |  |  |  | MIC (μmol/L) KN99α 24 h ([1]; KN99α (serotype A, mating type MATα, 24 h)): 26 µmol/L (≈ 64.4 µg/mL); MIC (μmol/L) KN99α 48 h ([1]; KN99α (serotype A, mating type MATα, 48 h)): 52 µmol/L (≈ 129 µg/mL); MIC (mg/L) 1841 24 h ([2]; 1841 (serotype D, 24 h)): 32 to 64 mg/L; MIC (μmol/L) 1841 24 h ([2]; 1841 (serotype D, 24 h, pH 7.5)): 13 to 26 µmol/L; MIC (mg/L) 1841 48 h ([2]; 1841 (serotype D, 48 h)): 64 to 128 mg/L; MIC (μmol/L) 1841 48 h ([2]; 1841 (serotype D, 48 h, pH 7.5)): 26 to 52 µmol/L; MIC (μmol/L) H99 24 h ([3]; H99 (serotype A, 24 h)): 26 µmol/L (≈ 64.4 µg/mL); MIC (μmol/L) H99 48 h ([3]; H99 (serotype A, 48 h)): 52 µmol/L (≈ 129 µg/mL); damaged cells in SEM [4]: slightly lower percentage of damaged cells than Chex1Arg20
2 | OC(Cn1cncn1)(Cn1cncn1)c1ccc(F)cc1F [Fluconazole, fluconazole, reference compound] | 105 | 32 | 2.5 ± 0.0 x 10^4 CFU/mL | 2.5 ± 0.0 x 10^4 CFU/mL | 2.7 ± 0.2 x 10^4 CFU/mL | 2.7 ± 0.2 x 10^4 CFU/mL | 1.9 ± 0.3 x 10^4 CFU/mL | 1.9 ± 0.3 x 10^4 CFU/mL | 3.4 ± 0.5 x 10^4 CFU/mL | 3.8 ± 0.3 x 10^4 CFU/mL | 3.4 ± 0.4 x 10^4 CFU/mL | 3.5 ± 0.4 x 10^4 CFU/mL | 3.3 ± 0.8 x 10^4 CFU/mL | 3.5 ± 0.8 x 10^4 CFU/mL | 2.9 ± 0.5 x 10^4 CFU/mL | 3.0 ± 0.6 x 10^4 CFU/mL | 3.3 ± 0.6 x 10^4 CFU/mL | 3.4 ± 0.7 x 10^4 CFU/mL | 3.2 ± 0.5 x 10^4 CFU/mL | 3.3 ± 0.5 x 10^4 CFU/mL | MIC [5, 16]: 105 µmol/L; MIC [5, 17]: 32 mg/L; MIC [6]: 4 to 32 µg/mL; MIC [6, 18]: 13 to 105 µM; MIC [7, 19]: 16 mg/L; MIC [7, 20]: 53 µmol/L; MIC [7, 21]: 16 to 32 mg/L; MIC [7, 22]: 53 to 105 µmol/L; MIC [8, 23]: 4 mg/L; MIC [8, 24]: 13 µmol/L; MIC [8, 25]: 8 mg/L; MIC [8, 26]: 26 µmol/L
3 | Nc1[nH]c(=O)ncc1F [Flucytosine, flucytosine, reference compound] | 496 | 64 | 2.2 ± 0.1 x 10^4 CFU/mL | 2.2 ± 0.1 x 10^4 CFU/mL | 2.4 ± 0.2 x 10^4 CFU/mL | 2.4 ± 0.2 x 10^4 CFU/mL | 2.4 ± 0.0 x 10^4 CFU/mL | 2.4 ± 0.0 x 10^4 CFU/mL | 3.1 ± 0.8 x 10^4 CFU/mL | 3.2 ± 0.7 x 10^4 CFU/mL | 3.7 ± 0.4 x 10^4 CFU/mL | 3.9 ± 0.3 x 10^4 CFU/mL | 3.1 ± 0.5 x 10^4 CFU/mL | 3.3 ± 0.6 x 10^4 CFU/mL | 3.4 ± 0.7 x 10^4 CFU/mL | 3.4 ± 0.8 x 10^4 CFU/mL | 3.1 ± 0.5 x 10^4 CFU/mL | 3.2 ± 0.5 x 10^4 CFU/mL | 3.3 ± 0.5 x 10^4 CFU/mL | 3.3 ± 0.5 x 10^4 CFU/mL | MIC [5, 16]: 992 µmol/L; MIC [5, 17]: 128 mg/L; MIC [6]: ≥ 64 µg/mL; MIC [6, 18]: ≥ 496 µM; MIC [7, 19]: 64 mg/L; MIC [7, 20]: 496 µmol/L; MIC [7, 21]: > 128 mg/L; MIC [7, 22]: > 992 µmol/L; MIC [8, 23]: 128 mg/L; MIC [8, 24]: 992 µmol/L; MIC [8, 25]: > 128 mg/L; MIC [8, 26]: > 992 µmol/L
4 | gu-OIOIORPVYOPRPRPPHPRL-OH [Api795, optimized apidaecin analog] |  |  | 1.4 ± 0.6 x 10^4 CFU/mL | 1.4 ± 0.6 x 10^4 CFU/mL | 2.1 ± 0.1 x 10^4 CFU/mL | 2.1 ± 0.1 x 10^4 CFU/mL | 0.2 ± 0.0 x 10^4 CFU/mL | 0.2 ± 0.0 x 10^4 CFU/mL | 3.3 ± 0.3 x 10^4 CFU/mL | 3.6 ± 0.6 x 10^4 CFU/mL | 1.4 ± 0.4 x 10^4 CFU/mL | 2.0 ± 0.2 x 10^4 CFU/mL | 0.1 ± 0.0 x 10^4 CFU/mL | 0.5 ± 0.2 x 10^4 CFU/mL | 2.9 ± 0.3 x 10^4 CFU/mL | 2.9 ± 0.4 x 10^4 CFU/mL | 1.7 ± 0.7 x 10^4 CFU/mL | 1.9 ± 0.8 x 10^4 CFU/mL | 0.1 ± 0.1 x 10^4 CFU/mL | 0.4 ± 0.1 x 10^4 CFU/mL | MIC (mg/L) KN99α 24 h [1, 27]: 4 to 8 mg/L; MIC (μmol/L) KN99α 24 h [1, 27]: 1.6 to 3.2 µmol/L; MIC (μmol/L) KN99α 48 h [1, 28]: 3.2 µmol/L; time-dependent antifungal effect [12]: delayed antifungal effect; MIC (μmol/L) 1841 24 h ([2]; broth microdilution, 50% SAB in phosphate buffer pH 7.5, 5 × 10^4 CFU/mL, 30°C, read after 24 h, mean of six replicates (n = 6)): 1.6 µmol/L; MIC (μmol/L) 1841 48 h ([2]; broth microdilution, 50% SAB in phosphate buffer pH 7.5, 5 × 10^4 CFU/mL, 30°C, read after 48 h, n = 6): 3.2 µmol/L; MIC (μmol/L) H99 24 h [3, 27]: 3.2 µmol/L; MIC (μmol/L) H99 48 h [3, 28]: 3.2 µmol/L; colony formation on agar [13]: delayed colony formation
